Experimental data as given in patent US20220105124A1, “METHODS FOR TARGETED TREATMENT AND PREDICTION OF PATIENT SURVIVAL IN CANCER” (University of Florida Research Foundation, Incorporated, priority 2019, published 2022).

Test system: GBM cells with high VDR expression
Test: Treating GBM cells with high VDR expression with vitamin D
Format: cell-based
Details: GBM cells with high VDR expression treated with vitamin D
From the text: The influence of vitamin D is also examined for its role the link between VDR (vitamin D receptor) and GBM prognosis. Addition of vitamin D is used to determine if vitamin D will direct VDR to a beneficial pro-immune function of liganded VDR. Removal of vitamin D is used to determine if vitamin D deficiency leads to harmful pro-tumor unliganded VDR signal.

Substance: Vitamin D
- Sox2 expression: signal from VDR, leading to lower Sox2,
- VDR expression: unaffected.
- abnormal signal from VDR: cells with vitamin D reduces this abnormal
